We go through 16 molecules from patent US20150175530A1, “ANTIBACTERIAL AGENTS” (priority 2012, published 2015).

The subject of data set [1] is bacterial isolates (clinical isolates and ATCC quality control strains). The data set can be described thus: Minimum Inhibitory Concentrations (MICs) by broth microdilution (CLSI susceptibility testing). It is filed as cell-based. Here is the method: Bacterial isolates were cultivated from −70° C. frozen stocks by overnight passages at 35° C. in ambient air on Mueller-Hinton agar (Beckton Dickinson, Franklin Lakes, N.J.). Clinical isolates tested were obtained from various geographically diverse hospitals in the US and abroad (Focus Diagnostics, Herndon, Va. and JMI, North Liberty, Iowa). Quality control strains were from the American Type Culture Collection (ATCC; Rockville, Md.).
Minimum Inhibitory Concentrations (MICs) were determined by the broth microdilution method in accordance with the Clinical and Laboratory Standards Institute (CLSI) guidelines. In brief, organism suspensions were adjusted to a 0.5 McFarland standard to yield a final inoculum between 3×10^5 and 7×10^5 colony-forming units (CFU)/mL. Drug dilutions and inocula were made in sterile, cation adjusted Mueller-Hinton Broth (Beckton Dickinson). An inoculum volume of 100 μL was added to wells containing 100 μL of broth with 2-fold serial dilutions of drug. All inoculated microdilution trays were incubated in ambient air at 35° C. for 18-24 h. Following incubation, the lowest concentration of the drug that prevented visible growth (OD600 nm<0.05) was recorded as the MIC. Performance of the assay was monitored by the use of laboratory quality-control strains and levofloxacin, a compound with a defined MIC spectrum, in accordance with CLSI guidelines.

In data set [2] the test system is 3 P. aeruginosa strains (APAE001, APAE002, APAE006). As to the kind of experiment: Protein binding: fold change in MIC in the presence of 2% HSA and 0.05% AGP, Geomean of 3 strains. It is filed as cell-based, Pseudomonas aeruginosa. The conditions noted are these: MIC in the presence of 2% HSA and 0.05% AGP divided by MIC in the absence; Geomean of 3 P. aeruginosa strains (APAE001, APAE002, APAE006). Here is the method:
The effect of human serum albumin (HSA) and α-1-acid glycoprotein (AGP) from human plasma, which are known to nonspecifically bind to certain antibiotics and thereby reduce their activity (Banéres-Roquet et al. 2009 “Use of a Surface Plasmon Resonance Method to Investigate Antibiotic and Plasma Protein Interactions” Antimicrob. Agents and Chemother. 53(4):1528-1531), was assessed against 3 P. aeruginosa strains (APAE001, APAE002, APAE006). APAE001 is Pseudomonas aeruginosa ATCC27853; APAE002 is a wildtype lab strain of Pseudomonas aeruginosa known as PAM1020 or PA01. APAE006 is a strain of […]/PA01 with efflux deletions: delta mexAB-oprM::CM delta CD-oprJ::Gm delta mexEF-oprN::omega Hg. Lomovskaya, 0 et al. 1999. Use of a Genetic Approach To Evaluate the Consequences of Inhibition of Efflux Pumps in P aeruginosa. Antimicrob. Agents Chemother. 43: 1340-1346.
The standard procedure described in Susceptibility Testing was utilized with one adjustment, specifically 2% HSA and 0.05% AGP were added to the cation adjusted Mueller-Hinton Broth. The MIC for each strain of interest was then assessed in the presence and absence of HSA/AGP. Following MIC determination, the fold change in MIC was determined for each individual strain by dividing the MIC in the presence of HSA/AGP by the MIC in the absence of HSA/AGP. The protein binding Geomean was then calculated using these 3 values.

Where [3] appears, read: APAE1096 is a clinical isolate, broth microdilution, read-out: Minimum Inhibitory Concentrations (MICs) APAE1096.
Setting [4] is: Pseudomonas aeruginosa, APAE002 is a wildtype lab strain of Pseudomonas aeruginosa known as PAM1020 or PA01, broth microdilution, read-out: Minimum Inhibitory Concentrations (MICs) APAE002.
Where [5] appears, read: Pseudomonas aeruginosa, ATCC27853, APAE001 is Pseudomonas aeruginosa ATCC27853, broth microdilution, read-out: Minimum Inhibitory Concentrations (MICs) APAE001.
[6] abbreviates: Pseudomonas aeruginosa, ATCC27853, read-out: Minimum Inhibitory Concentrations (MICs) APAE001.
The mark [7] stands for this setting: Pseudomonas aeruginosa, read-out: Minimum Inhibitory Concentrations (MICs) APAE002.
Setting [8] is: read-out: Minimum Inhibitory Concentrations (MICs) APAE1096.

Values after ≈ are worked out from the molar mass of the structure shown. Where two headings read alike, the source gives them in different places.

Consider `CC(C)(N)[C@H](NC(=O)c1ccc(C#CC#CC[C@]2(O)C[C@@H](CO)C2)cc1)C(=O)NO` [Compound 28, N—((S)-3-amino-1-(hydroxyamino)-3-methyl-1-oxobutan-2-yl)-4-(5-((1S,3S)-1-hydroxy-3-(hydroxymethyl)cyclobutyl)penta-1,3-diyn-1-yl)benzamide], for which the MIC in data set [1] (setting [3]) was over 16 µg/mL; in data set [1] (setting [4]), 1 to 8 µg/mL (≈ 2.42 to 19.3 µM); in data set [1] (setting [5]) it was 1 to 8 µg/mL (≈ 2.42 to 19.3 µM). Besides, the “Protein Binding PB (Geomean of fold change in MIC)” value in data set [2] was found to be 1.3.
As for `CC(C)(N)[C@H](NC(=O)c1ccc(C#CC#C[C@H]2C[C@@](O)(CO)C2)cc1)C(=O)NO` [Compound 29, N—((S)-3-amino-1-(hydroxyamino)-3-methyl-1-oxobutan-2-yl)-4-(((1R,3S)-3-hydroxy-3-(hydroxymethyl)cyclobutyl)buta-1,3-diynyl)benzamide], the MIC was 1 to 8 µg/mL (≈ 2.5 to 20 µM) in data set [1] (setting [3]), under 1 µg/mL in data set [1] (setting [4]) and under 1 µg/mL in data set [1] (setting [5]). The “Protein Binding PB (Geomean of fold change in MIC)” value in data set [2] stood at 2.9.
Turning to `CC(C)(N)[C@H](NC(=O)c1ccc(C#CC#C[C@@H]2C[C@@H](O)[C@@H](O)C2)cc1)C(=O)NO` [Compound 32, N—((S)-3-amino-1-(hydroxyamino)-3-methyl-1-oxobutan-2-yl)-4-(((1S,3R,4S)-3,4-dihydroxycyclopentyl)buta-1,3-diynyl)benzamide], the MIC is 1 to 8 µg/mL (≈ 2.5 to 20 µM) in data set [1] (setting [3]), under 1 µg/mL in data set [1] (setting [4]) and under 1 µg/mL in data set [1] (setting [5]). Besides, the “Protein Binding PB (Geomean of fold change in MIC)” value in data set [2] is 5.5.
As to `CC(C)(N)[C@H](NC(=O)c1ccc(C#CC#C[C@H]2CC[C@@](O)(CO)CC2)cc1)C(=O)NO` [Compound 33A, N—((S)-3-amino-1-(hydroxyamino)-3-methyl-1-oxobutan-2-yl)-4-(((1S,4R)-4-hydroxy-4-(hydroxymethyl)cyclohexyl)buta-1,3-diynyl)benzamide], the results for the MIC in data set [1] (setting [3]), in data set [1] (setting [4]) and in data set [1] (setting [5]) were 8 to 16 µg/mL (≈ 18.7 to 37.4 µM), under 1 µg/mL and 1 to 8 µg/mL (≈ 2.34 to 18.7 µM), respectively. For the same molecule, the “Protein Binding PB (Geomean of fold change in MIC)” value in data set [2] was 2.6.
On to `CC(C)(N)[C@H](NC(=O)c1ccc(C#CC#C[C@H]2CC[C@](O)(CO)CC2)cc1)C(=O)NO` [Compound 33B, N—((S)-3-amino-1-(hydroxyamino)-3-methyl-1-oxobutan-2-yl)-4-(((1R,4S)-4-hydroxy-4-(hydroxymethyl)cyclohexyl)buta-1,3-diynyl)benzamide], for which the MIC in data set [1] (setting [3]) is 1 to 8 µg/mL (≈ 2.34 to 18.7 µM); in data set [1] (setting [4]), 1 to 8 µg/mL (≈ 2.34 to 18.7 µM); in data set [1] (setting [5]), under 1 µg/mL. Moreover, in data set [2], the “Protein Binding PB (Geomean of fold change in MIC)” value amounted to 5.1.
As for `CC(C)(O)[C@H](NC(=O)c1ccc(C#CC#CCCO)cc1)C(=O)NO` [Compound 34, (S)—N-(3-hydroxy-1-(hydroxyamino)-3-methyl-1-oxobutan-2-yl)-4-(6-hydroxyhexa-1,3-diynyl)benzamide], the MIC in data set [1] (setting [3]) was 1 to 8 µg/mL (≈ 2.9 to 23.2 µM); in data set [1] (setting [4]) it was under 1 µg/mL; in data set [1] (setting [5]), under 1 µg/mL. Also, the “Protein Binding PB (Geomean of fold change in MIC)” value in data set [2] turned out to be 2.8.
For `C[C@@H](N)[C@H](NC(=O)c1ccc(C#CC#CCCO)cc1)C(=O)NO` [Compound 35, N-((2S,3R)-3-amino-1-(hydroxyamino)-1-oxobutan-2-yl)-4-(6-hydroxyhexa-1,3-diyn-1-yl)benzamide], the MIC is 1 to 8 µg/mL (≈ 3.04 to 24.3 µM) in data set [1] (setting [3]), under 1 µg/mL in data set [1] (setting [4]) and under 1 µg/mL in data set [1] (setting [5]). For the same molecule, in data set [2], the “Protein Binding PB (Geomean of fold change in MIC)” value came to 2.0.
On to `CC(C)(N)[C@H](NC(=O)c1ccc(C#CC#CC[C@H](O)CO)cc1)C(=O)NO` [Compound 36, N—((S)-3-amino-1-(hydroxyamino)-3-methyl-1-oxobutan-2-yl)-4-((S)-6,7-dihydroxyhepta-1,3-diyn-1-yl)benzamide], for which the MIC in data set [1] (setting [6]) was under 1 µg/mL; in data set [1] (setting [7]), under 1 µg/mL; in data set [1] (setting [8]), 1 to 8 µg/mL (≈ 2.68 to 21.4 µM). For the same molecule, the “Protein Binding PB (Geomean of fold change in MIC)” value in data set [2] is on record as 2.3.
In the case of `CC(C)(N)[C@H](NC(=O)c1ccc(C#CC#CC[C@@H](O)CO)cc1)C(=O)NO` [Compound 37, N—((S)-3-amino-1-(hydroxyamino)-3-methyl-1-oxobutan-2-yl)-4-((R)-6,7-dihydroxyhepta-1,3-diyn-1-yl)benzamide], the MIC in data set [1] (setting [6]), in data set [1] (setting [7]) and in data set [1] (setting [8]) was 1 to 8 µg/mL (≈ 2.68 to 21.4 µM) in each case. For the same molecule, in data set [2], the “Protein Binding PB (Geomean of fold change in MIC)” value is 1.4.
For `C[C@@H](O)[C@H](NC(=O)c1ccc(C#CC#CCCO)cc1)C(=O)NO` [Compound 38, N-((2S,3R)-3-hydroxy-1-(hydroxyamino)-1-oxobutan-2-yl)-4-(6-hydroxyhexa-1,3-diyn-1-yl)benzamide], the figures for the MIC in data set [1] (setting [3]), in data set [1] (setting [4]) and in data set [1] (setting [5]) were 1 to 8 µg/mL (≈ 3.03 to 24.2 µM), under 1 µg/mL and 1 to 8 µg/mL (≈ 3.03 to 24.2 µM), respectively. In addition, the “Protein Binding PB (Geomean of fold change in MIC)” value in data set [2] was determined as 2.
As to `CC(C#CC#Cc1ccc(C(=O)N[C@H](C(=O)NO)C(C)(C)N)cc1)CO` (stereo partly drawn) [Compound 39, N—((S)-3-amino-1-(hydroxyamino)-3-methyl-1-oxobutan-2-yl)-4-(6-hydroxy-5-methylhexa-1,3-diyn-1-yl)benzamide], the MIC is 1 to 8 µg/mL (≈ 2.8 to 22.4 µM) in data set [1] (setting [3]), under 1 µg/mL in data set [1] (setting [4]) and under 1 µg/mL in data set [1] (setting [5]). For the same molecule, the “Protein Binding PB (Geomean of fold change in MIC)” value in data set [2] came out at 2.8.
As to `C[C@H](O)C#CC#Cc1ccc(C(=O)N[C@H](C(=O)NO)C(C)(C)O)cc1` [Compound 40, N—((S)-3-hydroxy-1-(hydroxyamino)-3-methyl-1-oxobutan-2-yl)-4-((S)-5-hydroxyhexa-1,3-diyn-1-yl)benzamide], the MIC is 1 to 8 µg/mL (≈ 2.9 to 23.2 µM) in data set [1] (setting [3]), under 1 µg/mL in data set [1] (setting [4]) and 1 to 8 µg/mL (≈ 2.9 to 23.2 µM) in data set [1] (setting [5]). For the same molecule, the “Protein Binding PB (Geomean of fold change in MIC)” value in data set [2] stood at 2.6.
Turning to `C[C@H](O)C#CC#Cc1ccc(C(=O)N[C@H](C(=O)NO)[C@@H](C)N)cc1` [Compound 41, N-((2S,3R)-3-amino-1-(hydroxyamino)-1-oxobutan-2-yl)-4-((S)-5-hydroxyhexa-1,3-diyn-1-yl)benzamide], the MIC in data set [1] (setting [3]) is 1 to 8 µg/mL (≈ 3.04 to 24.3 µM); in data set [1] (setting [4]), under 1 µg/mL; in data set [1] (setting [5]), under 1 µg/mL. For the same molecule, the “Protein Binding PB (Geomean of fold change in MIC)” value in data set [2] is 2.
Take `C[C@H](O)C#CC#Cc1ccc(C(=O)N[C@H](C(=O)NO)[C@@H](C)O)cc1` [Compound 42, N-((2S,3R)-3-hydroxy-1-(hydroxyamino)-1-oxobutan-2-yl)-4-((S)-5-hydroxyhexa-1,3-diyn-1-yl)benzamide]: the results for the MIC in data set [1] (setting [3]), in data set [1] (setting [4]) and in data set [1] (setting [5]) were 8 to 16 µg/mL (≈ 24.2 to 48.4 µM), 1 to 8 µg/mL (≈ 3.03 to 24.2 µM) and 1 to 8 µg/mL (≈ 3.03 to 24.2 µM), respectively. In addition, in data set [2], the “Protein Binding PB (Geomean of fold change in MIC)” value is recorded as 2.6.
As for `CNC(C)(C)[C@H](NC(=O)c1ccc(C#CC#CC[C@H](O)CO)cc1)C(=O)NO` [Compound 43, 4-((S)-6,7-dihydroxyhepta-1,3-diyn-1-yl)-N—((S)-1-(hydroxyamino)-3-methyl-3-(methylamino)-1-oxobutan-2-yl)benzamide], the figures for the MIC in data set [1] (setting [3]), in data set [1] (setting [4]) and in data set [1] (setting [5]) were 1 to 8 µg/mL (≈ 2.58 to 20.6 µM), under 1 µg/mL and under 1 µg/mL, respectively. The “Protein Binding PB (Geomean of fold change in MIC)” value in data set [2] was determined as 1.6.
Turning to `CNC(C)(C)[C@H](NC(=O)c1ccc(C#CC#CC[C@@H](O)CO)cc1)C(=O)NO` [Compound 44, 4-((R)-6,7-dihydroxyhepta-1,3-diyn-1-yl)-N—((S)-1-(hydroxyamino)-3-methyl-3-(methylamino)-1-oxobutan-2-yl)benzamide], the MIC in data set [1] (setting [3]) is 1 to 8 µg/mL (≈ 2.58 to 20.6 µM); in data set [1] (setting [4]), under 1 µg/mL; in data set [1] (setting [5]), under 1 µg/mL. Besides, the “Protein Binding PB (Geomean of fold change in MIC)” value in data set [2] is 2.0.
